# Source: paper PMC11013143, “4-Chloroisocoumarins as Chlamydial Protease Inhibitors and Anti-Chlamydial Agents” (Molecules, 2024)
# What was measured:
# CtHtrA = target: T1, CtHtrA (Chlamydia trachomatis serovar D, UniProt P18584); test: CtHtrA protease inhibition assay; format: biochemical; conditions: for IC50: IC50 against CtHtrA; for Relative Potency against CtHtrA: [IC50 of control]/[IC50 test compound]
# T1 construct: made in house; host or cells: E. coli BL21(DE3), pET22b
# Description: The inhibitory activity of compounds 2a–g against CtHtrA was evaluated. […] As these compounds are reportedly covalent inhibitors of serine proteases, a true IC50 is unable to be calculated. Instead, the residual activity of the protease is monitored over time in response to a range of compound concentrations, and an IC50 value is interpolated from a dose–response curve (see Figures S2–S4 and Tables S1 and S2). This IC50 value is then compared to a positive control (JO146 was used for 2a–g, and 2g was used for 6a–h), giving the ‘relative potency’. This is the established method for assessing CtHtrA inhibitory potency. […] This effect may be due to depth restrictions within the S1 subpocket, as kinetic studies on the rates of protease inhibition in HLE were reduced by larger C-3 alkoxy substituents. Chain branching (iso-propyl and sec-butyl substituents) increased the activity, resulting in a 1.4-fold increase for 2e over 2b and a 2.8-fold improvement for 2g over 2c.
# CtHtrA was expressed using an procedure adapted from the literature. Recombinant E. coli BL21(DE3) pET22b was grown in LB media containing 100 ug/mL ampicillin to an OD600 of 0.5-0.6 in 5 × 400 mL batches at 37 °C. Isopropyl β-D-1-thioglactopyranoside (1 M, 400 µL, 1 mM final concentration) was added to each flask and incubated at 30 °C with shaking at 150 rpm for an additional 2.5 h. The culture was centrifuged at 4000× g for 15 min at 4 °C, and the cell pellet was harvested and resuspended in lysis buffer (50 mM phosphate, 10 mM imidazole, 500 mM NaCl, 0.1% Triton X-100, 10% glycerol). Lysozyme was added to the suspended cells and was sonicated in 15 cycles of 15 s, with one minute between cycles while maintaining 4 °C, and then centrifuged at 8000× g for 20 min to remove any debris, retaining the supernatant for protein purification.
# TALON® metal affinity resin (Takara cat no. 635652, 5 mL) was added to each lysate tube and washed sequentially with lysis buffer (2 × 45 mL) and stringency buffer (4 × 45 mL) and then eluted with elution buffer (2 × 5 mL), allowing incubations at 4 °C for 20 min per wash, and centrifuging at 2500× g and 4 °C between washes to pellet the resin. The eluates were dialyzed in Tris buffer (pH 7.0, 50 mM, 4 L) with magnesium chloride (20 mM) at 4 °C five times over 24 h, with a minimum of three hours per dialysis change. Protein expression and isolation were confirmed with SDS-PAGE Coomassie stained gel, which was examined for the band at the correct size, and a BCA assay to confirm purified protein concentration prior to use.
# CtHtrA was added to 25 wells in a black 96-well plate (40–80 µL, 10 µL increments), to which Tris-HCl buffer (50 mM, pH 7.0 with 20 mM MgCl2) was added to bring the total volume to 90 µL for 10 wells and 85 µL for the remaining 15. JO146 (10 µM, 5 µL) was added to 5 wells and JO146 (1 µM, 5 µL) was added to another 5 wells, with DMSO (5 µL) being added to the remaining 5 as a control. The plate was incubated at 37 °C for 10 min before substrate (MCA-ENLHLPLPIIFK-DNP, 10 µL, 1 mg/mL, 50% isopropanol in buffer) was added and analyzed in a TECAN Infinite Pro M200 plate reader with an excitation wavelength of 340 nm and fluorescence measured at 405 nm with four reads per well at 60 s intervals. A minimum volume of CtHtrA granting a fluorescence change of 300 min^−1 was used for subsequent assay.
# The determined appropriate volume of CtHtrA in buffer was added to a 96-well non-transparent black plate and diluted to 85 µL with buffer solution. Drug or control (5 µL) at a maximum of 20% DMSO/80% buffer was added to the appropriate well with DMSO controls, and the plate was incubated for 10 min to allow activation by the protein. MCA-ENLHLPLPIIFK-DNP (Mimotopes, Australia, 1 mg/mL, 10 µL) was added and immediately monitored on a TECAN M200 Infinite plate reader at 37 °C every 60 s for 30 min, using the same wavelengths as for the activity evaluation. […]
# HEp-2 cells = test: MTS cell viability assay, HEp-2 cells; format: cell-based, human; conditions: 24 h; for effect on HEp-2 cell viability: any tested concentration (31.25, 62.5, 125 µM)
# Description: The cytotoxic effects of the 4-chloroisocoumarin compounds 2a–g and 6a–h (24 h) were tested against HEp-2 and McCoy B cells using the MTS cell viability assay. HEp-2 and McCoy B cells were selected, as these are routinely used for the cultivation of chlamydial species, and low cytotoxicity against host cells is required to evaluate the anti-chlamydial properties of a test compound [27].
# HEp-2 (human epithelial type 2, CCL-23, ATCC®, Virginia, USA) or McCoy B (mouse fibroblast, CRL-1696, ATCC®) cells were grown to 80–100% confluence, and cell density was determined with a haemocytometer. Cells were then diluted to 1 × 10^5 cells/mL, and 100 µL was added to each well in a 96-well plate, with 3 wells left as controls. Cells were grown for 24 h, and the media was removed and then replaced with fresh media containing 0.1% DMSO and the drug for testing in triplicate. Drugs and cells were incubated for 24 h, and then 20 µL of MTS and PMS solution was added and then incubated for a further four hours. Absorbance was measured at 490 nm on a TECAN M200 Infinite plate reader and data were processed using Microsoft Excel^TM with the following equation to determine cell viability relative to DMSO controls. Cellviability%=AbsorbanceDrug−AbsorbanceDye/AbsorbanceDMSO−AbsorbanceDye
# T1 sequence (P18584 17-497): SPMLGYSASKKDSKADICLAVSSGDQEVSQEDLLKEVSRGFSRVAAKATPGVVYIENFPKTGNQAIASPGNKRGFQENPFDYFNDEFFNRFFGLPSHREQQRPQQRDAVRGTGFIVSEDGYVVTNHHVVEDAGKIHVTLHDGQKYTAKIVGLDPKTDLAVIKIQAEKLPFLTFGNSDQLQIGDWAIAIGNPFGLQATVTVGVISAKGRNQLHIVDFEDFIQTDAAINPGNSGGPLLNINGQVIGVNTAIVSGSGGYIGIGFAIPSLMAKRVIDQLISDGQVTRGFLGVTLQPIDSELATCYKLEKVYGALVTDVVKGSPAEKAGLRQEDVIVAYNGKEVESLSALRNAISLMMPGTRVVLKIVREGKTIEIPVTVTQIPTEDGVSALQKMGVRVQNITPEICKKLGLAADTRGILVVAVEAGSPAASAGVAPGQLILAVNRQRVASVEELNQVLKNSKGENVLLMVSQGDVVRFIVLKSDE
SMILES,"IC50 (CtHtrA; Table S2, Batch 3, control 2g) [µM]",Relative Potency against CtHtrA (CtHtrA; control 2g),effect on HEp-2 cell viability (HEp-2 cells),also measured
"CCC(C)Oc1oc(=O)c2ccccc2c1Cl (racemic) [Compound 2g, (±)-3-sec-Butoxy-4-chloroisocoumarin]",34.9,–,–,"Relative Selectivity (CtHtrA; (relative CtHtrA potency)/(relative HLE potency)): 14.6; IC50 (CtHtrA; Table S2, Batch 2, control JO146): 9.11 µM; IC50 (CtHtrA; Table S2, Batch 4, control 2g): 32.3 µM; IC50 (CtHtrA; Table S2, Batch 5, control 2g): 28 µM; Relative Potency against CtHtrA (CtHtrA; control JO146): 6.58"
"CCC(C)Oc1oc(=O)c2cc(N)ccc2c1Cl (racemic) [Compound 6a, (±)-7-Amino-4-chloro-3-sec-butoxyisocoumarin]",107,0.326,–,effect on HEp-2 cell viability / cytotoxicity (HEp-2 cells; 125 µM): reduced cell viability slightly
"CCC(C)Oc1oc(=O)c2cc(N(C)C)ccc2c1Cl (racemic) [Compound 6b, (±)-7-(Dimethylamino)-3-sec-butoxy-4-chloroisocoumarin]",309,0.113,not found to significantly impact cytotoxicity,–
"CCC(C)Oc1oc(=O)c2cc(NC(C)=O)ccc2c1Cl (racemic) [Compound 6c, (±)-N-(4-Chloro-1-oxo-3-sec-butoxy-isochromen-7-yl)acetamide]",221,0.158,did not significantly affect cell viability,–
"CCC(C)Oc1oc(=O)c2cc(NC(=O)C(F)(F)F)ccc2c1Cl (racemic) [Compound 6d, (±)-N-(4-chloro-1-oxo-3-sec-butoxy-isochromen-7-yl)-2,2,2-trifluoroacetamide]",–,<0.001,did not significantly affect cell viability,"IC50 against CtHtrA (CtHtrA; Table S2, Batch 4, control 2g): Not active"
"CCC(C)Oc1oc(=O)c2cc(I)ccc2c1Cl (racemic) [Compound 6e, (±)-3-sec-Butoxy-4-chloro-7-iodoisocoumarin]",–,<0.001,–,"IC50 against CtHtrA (CtHtrA; Table S2, Batch 4, control 2g): Not active; cytotoxicity against HEp-2 cells (HEp-2 cells; 62.5 µM): retained some cytotoxicity"
"CCC(C)Oc1oc(=O)c2cc(OC)ccc2c1Cl (racemic) [Compound 6h, (±)-7-Methoxy-3-sec-butoxy-4-chloroisocoumarin]",–,0.184,did not significantly affect cell viability,"IC50 (CtHtrA; Table S2, Batch 5, control 2g): 152 µM"
